# US11826358B2, “Locally-induced adipose tissue browning by microneedle patch for obesity treatment” (NORTH CAROLINA STATE UNIVERSITY, priority 2017, dated 2023)
# What was measured:
# [1] = system: PgKO-PPARγ1; assay: Adipogenesis in PgKO-PPARγ1 MEF adipocyte model (aP2, Perilipin Q-PCR); assay type: cell-based, mouse
# [2] = system: 3T3-L1 adipocytes; assay: Browning in fully differentiated 3T3-L1 adipocytes (Q-PCR); assay type: cell-based
# Text: To validate the efficiency of Rosi NPs, an in vitro adipocyte model PgKO-PPARγ1 was used in which the reconstitution of a shorter form of PPARγ (γ1) in Ppar^−/− mouse embryonic fibroblast (MEF) rescues adipocyte differentiation only in the presence of exogenous Thiazolidinedione class of ligand (e.g. Rosi). […] In addition to adipogenic potential, the browning capacity of Rosi NPs was also compared. In fully differentiated 3T3-L1 adipocytes, Rosi NPs behaved the same as nude Rosi to up-regulate brown adipocyte markers Elovl3 and Cidea as well as to repress white adipocyte genes Resistin and Adipsin (FIG. 2g). Therefore, the disclosed nanoparticalization strategy can sustain a constant release of Rosi at physiological levels of glucose without affecting its efficiency.
# RNA was extracted from tissues or cells by combining TriZol reagent and NucleoSpin RNA kit with DNase I digestion (Macherey-Nagel), following the manufacturer's instructions. 1 μg total RNA was used to synthesize cDNA by using the High-capacity cDNA Reverse Transcription kit (Applied Biosystems). Quantitative real-time PCR (Q-PCR) were performed on a Bio-Rad CFX96 Real-Time PCR platform by using the GoTaq qPCR Master Mix (Promega). Relative gene expressions were calculated by using ΔΔCt method with Cyclophilin A (cultured cells) or RPL23 (tissues) as the reference gene.
structure (smiles),measurement,setting,value
"CN(CCOc1ccc(CC2SC(=O)NC2=O)cc1)c1ccccn1 (racemic) [nude Rosi, (RS)-5-[4-(2-[methyl(pyridin-2-yl)amino]ethoxy)benzyl]thiazolidine-2,4-dione]",adipocyte formation (induction of aP2 and Perilipin),[1],induce adipocyte formation
same,brown adipocyte markers Elovl3 and Cidea expression,[2],up-regulate
same,white adipocyte genes Resistin and Adipsin expression,[2],repress
